Reference: patent publication US11028090B2 (Dong Wha Pharm. Co., Ltd., priority 2017, dated 2021)
Like-named read-outs stand apart in the source and are kept apart here.

What was measured:
[1] = target: BRD4 (BD1+BD2) bromodomain (Homo sapiens (Human), UniProt O60885); experiment: BRD4 binding inhibition (AlphaScreen, GST-BRD4 vs tetraacetylated histone H4 peptide)
Summary of the method: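 AlphaScreen read after 30 min dark incubation at room temperature with glutathione acceptor/streptavidin donor beads (10 μg/ml each). The beads were added to compound plus 100 nM biotin-H4 (K5,8,12,16-acetyl) peptide and 100 nM GST-BRD4 BD1+BD2 in pH 7.4 HEPES/Tween/BSA/DTT buffer.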

[2] = tested on: acute myelogenous leukemia cells (MV-4-11 cells)
[3] = GST-BRD4 (BD1+BD2) / biotinylated acetyl-histone H4 (Lys5,8,12,16) peptide, read-out: IC50, BRD4 binding inhibition
[4] = GST-BRD4 (BD1+BD2) vs biotinylated acetyl-histone H4 peptide, AlphaScreen, read-out: BRD4 IC50

Structure (SMILES)	IC50 [1, 3] [nM]	IC50 [1, 4] [nM]	IC50 [2] [nM]
COc1ccc2nc(NCCCCNC(=O)CC(C)(C)C)c3nnc(C)n3c2c1 [Example 124, [4-(8-methoxy-1-methyl-[1,2,4]triazolo[4,3-a]quinoxaline-4-ylamino)-butyl]-3,3-dimethyl-butyramide]	≤ 50	29	700
Cc1nnc2c(NCCCCNC(=O)[C@@H](O)C(C)C)nc3cc(N4CCSCC4)ccc3n12 [Example 525, N-[4-(7-thiomorphonyl-4-yl-1-methyl-[1,2,4]triazolo[4,3-a]quinoxaline-4-ylamino)-butyl]-2-(S)-hydroxy-3-methyl-butyramide]	≤ 50	11	200
